The source made the active and inactive calls. No cut-off for these calls is given here.
Experiments:
[1] = tested on: 4T1; assay: Antitumor activity against mouse 4T1 cells implanted in BALB/C mouse assessed as upregulation of ISG15 gene expression at 50 mg/kg,ip administrated daily for 14 days by RT-qPCR analysis; assay type: functional, organism-based; conditions: time 14.0 day
[2] = Toxicity in BALB/C mouse xenografted with human MCF7 cells assessed as change in body weight at 25 mg/kg,ip administrated every other day for 15 days in presence of 5 mg/kg tamoxifen oral administration; assay type: organism-based; conditions: in vivo, 360 h, time 15 day
[3] = tested on: MCF7; assay: Synergistic antiproliferative activity against human MCF7 cells assessed as downregulation of CCND1 gene expression at 2.5 uM incubated for 6 hrs in presence of fulvestrant by RT-qPCR analysis; assay type: functional, cell-based
[4] = tested on: 4T1; assay: Potentiation of etoposide induced antiproliferative activity against mouse 4T1 cells assessed as inhibition of cell growth at 2.5 uM incubated for 7 days in presence of etoposide by celltiter 96 aqueous one solution cell proliferation assay; assay type: functional, cell-based; conditions: time 7.0 day
[5] = tested on: MCF7; assay: Antitumor activity against human MCF7 cells xenografted in BALB/C mouse assessed as upregulation of IFNalpha gene expression at 25 mg/kg,ip administrated every other day for 29 days by RT-qPCR analysis; assay type: functional, organism-based; conditions: time 29.0 day
[6] = tested on: MCF7; assay: Antitumor activity against human MCF7 cells xenografted in BALB/C mouse assessed as downregulation of GREB1 gene expression at 25 mg/kg,ip administrated every other day for 29 days by RT-qPCR analysis; assay type: functional, organism-based; conditions: time 29.0 day
[7] = tested on: 4T1; assay: Antitumor activity against mouse 4T1 cells implanted in BALB/C mouse assessed as upregulation of IFIT1 gene expression at 25 mg/kg,ip administrated daily for 14 days by RT-qPCR analysis; assay type: functional, organism-based; conditions: time 14.0 day
[8] = tested on: 4T1; assay: Potentiation of etoposide induced antiproliferative activity against mouse 4T1 cells assessed as inhibition of colony formation at 2.5 uM incubated for 10 days in presence of etoposide by crystal violet staining based analysis; assay type: functional, cell-based; conditions: time 10.0 day
[9] = tested on: MCF7; assay: Antitumor activity against human MCF7 cells xenografted in BALB/C mouse assessed as downregulation of NRIP1 gene expression at 25 mg/kg,ip administrated every other day for 29 days by RT-qPCR analysis; assay type: functional, organism-based; conditions: time 29.0 day
[10] = tested on: MCF7; assay: Antitumor activity against human MCF7 cells xenografted in BALB/C mouse assessed as downregulation of GREB1 gene expression at 50 mg/kg,ip administrated every other day for 29 days by RT-qPCR analysis; assay type: functional, organism-based; conditions: time 29.0 day
[11] = tested on: 4T1; assay: Antitumor activity against mouse 4T1 cells implanted in BALB/C mouse assessed as upregulation of CCL5 gene expression at 25 mg/kg,ip administrated daily for 14 days by RT-qPCR analysis; assay type: functional, organism-based; conditions: time 14.0 day
[12] = tested on: MCF7; assay: Potentiation of etoposide induced antiproliferative activity against human MCF7 cells assessed as upregulation of IFIT1 gene expression at 2.5 uM in presence of etoposide by RT-qPCR analysis; assay type: functional, cell-based
[13] = tested on: 4T1; assay: Antitumor activity against mouse 4T1 cells implanted in BALB/C mouse assessed as downregulation of NRIP1 gene expression at 50 mg/kg,ip administrated daily for 14 days by RT-qPCR analysis; assay type: functional, organism-based; conditions: time 14.0 day
[14] = Toxicity in BALB/C mouse xenografted with human MCF7 cells assessed as change in spleen morphology at 50 mg/kg,ip administrated every other day for 29 days; assay type: organism-based; conditions: in vivo, 696 h, time 29 day
[15] = Toxicity in BALB/C mouse xenografted with human MCF7 cells assessed as change in lung morphology at 50 mg/kg,ip administrated every other day for 29 days; assay type: organism-based; conditions: in vivo, 696 h, time 29 day
[16] = Toxicity in BALB/C mouse xenografted with human MCF7 cells assessed as change in kidney morphology at 50 mg/kg,ip administrated every other day for 29 days; assay type: organism-based; conditions: in vivo, 696 h, time 29 day
[17] = tested on: 4T1; assay: Antitumor activity against mouse 4T1 cells implanted in BALB/C mouse assessed as downregulation of NRIP1 gene expression at 25 mg/kg,ip administrated daily for 14 days by RT-qPCR analysis; assay type: functional, organism-based; conditions: time 14.0 day
[18] = Toxicity in BALB/C mouse implanted with mouse 4T1 cells assessed as change in liver morphology at 25 mg/kg,ip administrated daily for 14 days; assay type: organism-based; conditions: in vivo, 336 h, time 14 day
[19] = tested on: MDA-MB-231; assay: Antitumor activity against human MDA-MB-231 cells xenografted in BALB/C mouse assessed as inhibition of tumor growth at 25 mg/kg,ip administrated daily for 11 days; assay type: functional, organism-based; conditions: time 11.0 day
[20] = tested on: MCF7; assay: Antitumor activity against human MCF7 cells xenografted in BALB/C mouse assessed as downregulation of CCND1 gene expression at 50 mg/kg,ip administrated every other day for 29 days by RT-qPCR analysis; assay type: functional, organism-based; conditions: time 29.0 day
[21] = Toxicity in BALB/C mouse xenografted with human MCF7 cells assessed as change in spleen morphology at 25 mg/kg,ip administrated every other day for 29 days; assay type: organism-based; conditions: in vivo, 696 h, time 29 day
[22] = tested on: 4T1; assay: Potentiation of etoposide induced antitumor activity against mouse 4T1 cells implanted in BALB/C mouse assessed as reduction in tumor weight at 25 mg/kg,ip administrated daily for 12 days in presence of 8 mg/kg etoposide administration; assay type: functional, organism-based; conditions: time 12.0 day
[23] = tested on: 4T1; assay: Potentiation of etoposide induced antitumor activity against mouse 4T1 cells implanted in BALB/C mouse assessed as upregulation of ISG15 gene expression at 25 mg/kg,ip administrated daily for 12 days in presence of 8 mg/kg etoposide administration by RT-qPCR analysis; assay type: functional, organism-based; conditions: time 12.0 day
[24] = tested on: MCF7; assay: Antitumor activity against human MCF7 cells xenografted in BALB/C mouse assessed as upregulation of DDX58 gene expression at 50 mg/kg,ip administrated every other day for 29 days by RT-qPCR analysis; assay type: functional, organism-based; conditions: time 29.0 day
[25] = tested on: BT-474; assay: Antiproliferative activity against human BT-474 cells assessed as reduction in cell growth incubated for 7 days by celltiter 96 aqueous one solution cell proliferation assay; conditions: BT-474, 168 h
[26] = tested on: MCF7; assay: Antitumor activity against human MCF7 cells xenografted in BALB/C mouse assessed as downregulation of FOXC1 gene expression at 25 mg/kg,ip administrated every other day for 29 days by RT-qPCR analysis; assay type: functional, organism-based; conditions: time 29.0 day
[27] = tested on: MCF7; assay: Antitumor activity against human MCF7 cells xenografted in BALB/C mouse assessed as upregulation of IFIT1 gene expression at 50 mg/kg,ip administrated every other day for 29 days by RT-qPCR analysis; assay type: functional, organism-based; conditions: time 29.0 day
[28] = tested on: 4T1; assay: Antitumor activity against mouse 4T1 cells implanted in BALB/C mouse assessed as upregulation of ISG15 gene expression at 25 mg/kg,ip administrated daily for 14 days by RT-qPCR analysis; assay type: functional, organism-based; conditions: time 14.0 day
[29] = tested on: 4T1; assay: Antitumor activity against mouse 4T1 cells implanted in BALB/C mouse assessed as upregulation of IFNalpha gene expression at 25 mg/kg,ip administrated daily for 14 days by RT-qPCR analysis; assay type: functional, organism-based; conditions: time 14.0 day
[30] = Toxicity in BALB/C mouse implanted with mouse 4T1 cells assessed as change in spleen morphology at 50 mg/kg,ip administrated daily for 14 days; assay type: organism-based; conditions: in vivo, 336 h, time 14 day
[31] = tested on: 4T1; assay: Antitumor activity against mouse 4T1 cells implanted in BALB/C mouse assessed as downregulation of N-Myc gene expression at 25 mg/kg,ip administrated daily for 14 days by RT-qPCR analysis; assay type: functional, organism-based; conditions: time 14.0 day
[32] = Toxicity in BALB/C mouse xenografted with human MDA-MB-231 cells assessed as change in spleen morphology at 25 mg/kg,ip administrated daily for 11 days; assay type: organism-based; conditions: in vivo, 264 h, time 11 day

EC50 [25]: 2.13 µM
Compound: Cc1ccc(-c2nc(N3CCN(CCN(C)C)CC3)ncc2-c2ccoc2)cc1.Cl.Cl
Activity [1]: Active | Activity [2]: Non-Toxic | Activity [3]: Active | Activity [4]: Active | Activity [5]: Active | Activity [6]: Active | Activity [7]: Active | Activity [8]: Active | Activity [9]: Active | Activity [10]: Active | Activity [11]: Active | Activity [12]: Active | Activity [13]: Active | Activity [14]: Non-Toxic | Activity [15]: Non-Toxic | Activity [16]: Non-Toxic | Activity [17]: Active | Activity [18]: Non-Toxic | Activity [19]: Active | Activity [20]: Active | Activity [21]: Non-Toxic | Activity [22]: Active | Activity [23]: Active | Activity [24]: Active | Activity [26]: Active | Activity [27]: Active | Activity [28]: Active | Activity [29]: Active | Activity [30]: Non-Toxic | Activity [31]: Active | Activity [32]: Non-Toxic

Source: ChEMBL document CHEMBL5512665, “A CARM1 Inhibitor Potently Suppresses Breast Cancer Both In Vitro and In Vivo” (J Med Chem, 2024)
